Data on 12 compounds can be found in patent US9326511B2, “Methods of inhibiting microbial biofilms” (priority 2008, dated 2016).

What all share (assay type): cell-based, Staphylococcus aureus
The test system of experiment [1] is S. aureus SH1000 biofilms. The experiment is described as follows: Biofilm MIC and minimum biofilm eradication concentration, Calgary Biofilm Device. The note with it: for bMIC / MIC: biofilm MIC; for MBEC: minimum biofilm eradication concentration; for MIC: Staphylococcus aureus, SH1000BIOFILMS, read-out: bMIC. As to the method:
(§1) Methods: MICs were determined for planktonic cultures by broth microdilution according to British Society for Antimicrobial Chemotherapy (BSAC) guidelines. Biofilm MICs (bMIC) and minimum biofilm eradication concentrations (MBECs) were determined using the Calgary biofilm device. The effect of Compound 10 on the viability of cold culture cells was determined by growing S. aureus SH1000 to early exponential phase at 37° C. and resuspending the cells in pre-chilled media, where they were maintained in the presence and absence of Compound 10 and control agents. The effect of Compound 10 on slow growing cells expressing the stringent response was also determined by growing cultures to early log phase and the stringent response induced by the addition of the isoleucyl-tRNA synthetase inhibitor mupirocin. Compound 10 and control agents were then added and samples recovered for viable cell determinations.
Biofilm MICs and minimum biofilm eradication concentrations (MBEC) were determined in the Calgary Biofilm Device (Nunc Inc, Roskilde, Denmark) as described by Miller et al., 2005. This involves the following steps. Aliquots (200 μL) of exponential phase cultures of strain SH1000 were added to each well of a 96-well microtitre tray. The lid assembly, which has 96 polystyrene pegs corresponding to each well, was then replaced and the system incubated for 24 hours at 37° C. on a rocking platform. Following this a biofilm of approximately 10^7 cfu matured on each peg. The lid was then washed twice in phosphate-buffered saline (PBS) to remove residual planktonic growth and then placed into a microtitre tray with fresh media containing doubling dilutions of the test antibiotic. The system was then incubated for 24 hours at 37° C. on a rocking platform. The MIC was defined as the lowest concentration of antibiotic completely inhibiting visible growth after this incubation. After the MIC was recorded, the lid assembly was again washed twice in PBS to remove planktonic cells and remaining antibiotic and then placed into fresh drug-free media. The system was incubated for a further 24 hours and the MBEC was defined as the lowest concentration of antibiotic completely inhibiting the re-establishment of planktonic growth.

The test system of the next experiment is S. aureus SH1000. Description: Planktonic MIC by broth microdilution (BSAC guidelines). As to the method: as §1
For orientation: Broth dilution looks for growth in wells or tubes with falling amounts of substance.

In experiment [2] the test system is S. aureus SH1000 cold cultures. Description: Time-kill against cold cultures (4° C.). The note with it: cold culture held at 4° C. for 5 hours, agents at 4×MIC. As to the method:
as §1
The effect of XF drugs on the viability of cold culture cells was determined by growing S. aureus SH1000 to early exponential phase at 37° C., harvesting the cells by centrifugation (5,000×g, 10 min.) and resuspending them in pre-chilled media where they were maintained in the presence and absence of XF drugs and control agents for 5 hours. […] (FIG. 11).
(§2) The anti-staphylococcal activities of Compound 10, Compound 12 and a range of comparator agents against slow-growing cultures of Staphylococcus aureus were studied using standard time-kill methodology (Oliva et al. 2003, Hobbs et al. 2008). Staphylococcus aureus SH1000 cultures were grown to early exponential phase (OD600 nm of 0.2) in Mueller-Hinton broth (MHB) before being exposed to antibacterial agents at 4×MIC. An untreated culture served as the negative control. The experiments were undertaken in triplicate.
Cold cultures were prepared by growing SH1000 cells to early exponential phase (OD600 nm of 0.2) at 37° C. Cultures were then centrifuged and the cell pellet was resuspended in MHB pre-chilled to 4° C. The killing kinetics of antimicrobial agents were studied as described in the section above, with the exception that cultures were maintained at 4° C. over the 5 hour sampling period.

The subject of experiment [3] is stringent S. aureus SH1000 cultures. Description: Time-kill against cultures expressing the stringent response (induced with mupirocin). The note with it: stringent response induced with mupirocin, agents at 4×MIC. As to the method:
as §1
When nutrients become limiting for growth bacteria adjust their metabolism from one that supports growth to one that provides for long survival in the absence of nutrients. In many bacteria a key facilitator of this physiological switch, known as the stringent response, is accumulation of guanosine […] and pentaphosphate (Traxler et al., 2008). The antibiotic mupirocin is a strong inducer of the stringent response in S. aureus and effectively causes starvation of charged isoleucyl tRNA by potent inhibition of isoleucy ItRNA synthetase (IRS) (Oliva et al., 2003). The activity of XF drugs against S. aureus SH1000 prevented from growing by the addition of mupirocin (Oliva et al., 2003), was therefore examined (FIG. 10). As an alternative method for arresting growth, bacteria were suspended in cold growth medium (Mascio et al., 2007) and the bactericidal activity of XF drugs was also determined under these conditions (FIG. 11).
as §2
The antibiotic mupirocin is a strong inducer of the stringent response in S. aureus and causes starvation of charged isoleucyl tRNA by potent inhibition of isoleucyl tRNA synthetase (IRS) (Oliva et al. 2003, Cassels et al. 1995) Stringency was induced in SH1000 cultures by adding mupirocin (4 mg/L) to cells in the early exponential growth phase (OD600 nm of 0.2) (Oliva et al. 2003, Cassels et al. 1995). Cultures were incubated with mupirocin for 30 minutes before sampling began. Cultures were maintained at 37° C., and samples were taken at 30 minute intervals for 300 minutes, serially diluted in phosphate buffered saline (PBS) and diluted culture was spread on Mueller-Hinton agar and was incubated at 37° C. for 18-24 hours before the number of CFU were counted.

[4] abbreviates: S. aureus SH1000, Calgary Biofilm Device, 24 hours (Table 6).
The mark [5] stands for this setting: S. aureus SH1000, Calgary device (Example H).
Setting [6] is: S. aureus SH1000, Calgary Biofilm Device (Table 6).
[7] abbreviates: planktonic S. aureus SH1000 (Table 5).
[8] abbreviates: planktonic S. aureus SH1000 (Table 6).
[9] abbreviates: 24 h, S. aureus SH1000, Calgary Biofilm Device, 24 hours (Table 6).
The mark [10] stands for this setting: Staphylococcus aureus, planktonic S. aureus SH1000 (Table 5), read-out: MIC.

≈ marks a conversion by molar mass, not a printed value. Entries after “also recorded” stand apart in the source; their conditions may differ. Like-named read-outs stand apart in the source and are kept apart here. Some results are limits rather than exact numbers.

Consider `CCCCCCCCCCCCCCCC[N+](C)(C)C.[Br-]` [CTAB], for which the bMIC in experiment [1] (setting [4]) and in experiment [1] (setting [5]) was 2 µg/mL each time. Moreover, the MBEC in experiment [1] (setting [6]) and in experiment [1] (setting [5]) was >256 µg/mL in each case. The MIC against S. aureus SH1000 (setting [7]) and with S. aureus SH1000 (setting [8]) was 2 µg/mL throughout.
Take `CO/N=C(\C(=O)N[C@@H]1C(=O)N2C(C(=O)O)=C(COC(C)=O)CS[C@H]12)c1csc(N)n1` [Cefotaxime]: the MIC in experiment [1] (setting [9]) stood at 4 µg/mL (≈ 8.78 µM); in experiment [1] (setting [5]), 4 µg/mL (≈ 8.78 µM); in the experiment on S. aureus SH1000 (setting [10]), 0.5 µg/mL (≈ 1.1 µM); against S. aureus SH1000 (setting [8]) it was 0.5 µg/mL (≈ 1.1 µM).
As to `[H]/N=C(\N/C(=N/[H])NCCCCCCNC(=N)NC(=N)Nc1ccc(Cl)cc1)Nc1ccc(Cl)cc1` [Chlorhexidine], the MIC in experiment [1] (setting [9]) is 1 µg/mL (≈ 1.98 µM); in experiment [1] (setting [5]) it was 1 µg/mL (≈ 1.98 µM); with S. aureus SH1000 (setting [10]) it was 2 µg/mL (≈ 3.96 µM); in the experiment on S. aureus SH1000 (setting [8]), 2 µg/mL (≈ 3.96 µM).
Regarding `O=C(O)c1cn(C2CC2)c2cc(N3CCNCC3)c(F)cc2c1=O` [Ciprofloxacin], the MIC in experiment [1] (setting [9]) worked out at 4 µg/mL (≈ 12.1 µM); in experiment [1] (setting [5]), 4 µg/mL (≈ 12.1 µM); in the experiment on S. aureus SH1000 (setting [10]) it was 2 µg/mL (≈ 6.04 µM); against S. aureus SH1000 (setting [8]) it was 2 µg/mL (≈ 6.04 µM).
Regarding `CCCCCCCCCC(=O)N[C@@H](Cc1c[nH]c2ccccc12)C(=O)N[C@H](CC(N)=O)C(=O)N[C@@H](CC(=O)O)C(=O)N[C@@H]1C(=O)NCC(=O)N[C@@H](CCCN)C(=O)N[C@@H](CC(=O)O)C(=O)N[C@H](C)C(=O)N[C@@H](CC(=O)O)C(=O)NCC(=O)N[C@H](CO)C(=O)N[C@@H]([C@H](C)CC(=O)O)C(=O)N[C@@H](CC(=O)c2ccccc2N)C(=O)O[C@@H]1C` [Daptomycin], the MIC in experiment [1] (setting [9]) amounted to 2 µg/mL (≈ 1.23 µM); in experiment [1] (setting [5]) it was 2 µg/mL (≈ 1.23 µM); in the experiment with S. aureus SH1000 (setting [10]) it was 1 µg/mL (≈ 0.617 µM); in the experiment with S. aureus SH1000 (setting [8]) it was 1 µg/mL (≈ 0.617 µM). For the same compound, the “viability / bactericidal activity in time-kill (in words)” value in experiment [2] is “no loss of viability; also recorded: retained some bactericidal activity; also recorded: retained limited bactericidal activity”; in experiment [3] it was “no loss of viability”.
Consider `Cc1onc(-c2c(F)cccc2Cl)c1C(=O)N[C@@H]1C(=O)N2[C@@H]1SC(C)(C)[C@@H]2C(=O)O` [Flucloxacillin], for which the MIC in experiment [1] (setting [9]) came to 4 µg/mL (≈ 8.81 µM); in experiment [1] (setting [5]), 4 µg/mL (≈ 8.81 µM); in the experiment with S. aureus SH1000 (setting [10]), 0.125 µg/mL (≈ 0.275 µM); with S. aureus SH1000 (setting [8]), 0.125 µg/mL (≈ 0.275 µM).
For the compound `CC(=O)O[C@H]1C[C@@]2(C)[C@@H](C[C@@H](O)[C@H]3[C@@]4(C)CC[C@@H](O)[C@@H](C)[C@@H]4CC[C@@]32C)/C1=C(\CCC=C(C)C)C(=O)O` [Fusidic acid], the MIC in experiment [1] (setting [9]) came to 0.5 µg/mL (≈ 0.968 µM); in experiment [1] (setting [5]), 0.5 µg/mL (≈ 0.968 µM); in the experiment on S. aureus SH1000 (setting [10]) it was 0.25 µg/mL (≈ 0.484 µM); with S. aureus SH1000 (setting [8]), 0.25 µg/mL (≈ 0.484 µM).
Consider `C[C@@H](O)[C@H]1C(=O)N2C(C(=O)O)=C(S[C@@H]3CN[C@H](C(=O)N(C)C)C3)[C@H](C)[C@H]12` [Meropenem], for which the MIC (in experiment [1] (setting [9]); in experiment [1] (setting [5]); in the experiment on S. aureus SH1000 (setting [10]); against S. aureus SH1000 (setting [8])) was 0.5 µg/mL (≈ 1.3 µM) throughout.
As to `C/C(=C\C(=O)OCCCCCCCCC(=O)O)C[C@@H]1OC[C@H](C[C@@H]2O[C@H]2[C@@H](C)[C@H](C)O)[C@@H](O)[C@H]1O` [Mupirocin], the MIC in experiment [1] (setting [9]) is 0.25 µg/mL (≈ 0.499 µM); in experiment [1] (setting [5]), 0.25 µg/mL (≈ 0.499 µM); in the experiment on S. aureus SH1000 (setting [10]) it was 0.125 µg/mL (≈ 0.25 µM); against S. aureus SH1000 (setting [8]), 0.125 µg/mL (≈ 0.25 µM).
For the compound `CO[C@H]1/C=C/O[C@@]2(C)Oc3c(C)c(O)c4c(O)c(c(/C=N/N5CCN(C)CC5)c(O)c4c3C2=O)NC(=O)/C(C)=C\C=C\[C@H](C)[C@H](O)[C@@H](C)[C@@H](O)[C@@H](C)[C@H](OC(C)=O)[C@@H]1C` [Rifampin], the MIC is 0.02 µg/mL (≈ 0.0243 µM) in experiment [1] (setting [9]), 0.03 µg/mL (≈ 0.0365 µM) in experiment [1] (setting [5]), 0.008 µg/mL (≈ 0.00972 µM) in the experiment with S. aureus SH1000 (setting [10]) and 0.008 µg/mL (≈ 0.00972 µM) against S. aureus SH1000 (setting [8]).
Consider `CN(C)[C@@H]1C(O)=C(C(N)=O)C(=O)[C@@]2(O)C(O)=C3C(=O)c4c(O)cccc4[C@@](C)(O)[C@H]3C[C@@H]12` [Tetracycline], for which the MIC in experiment [1] (setting [9]) amounted to 0.5 µg/mL (≈ 1.13 µM); in experiment [1] (setting [5]), 0.5 µg/mL (≈ 1.13 µM); with S. aureus SH1000 (setting [10]), 1 µg/mL (≈ 2.25 µM); in the experiment on S. aureus SH1000 (setting [8]), 1 µg/mL (≈ 2.25 µM).
On to Gentamycin, for which the bMIC in experiment [1] (setting [4]) and in experiment [1] (setting [5]) was 1 µg/mL each time. For the same compound, the MBEC in experiment [1] (setting [6]) and in experiment [1] (setting [5]) was >256 µg/mL throughout. The MIC in the experiment on S. aureus SH1000 (setting [7]) and against S. aureus SH1000 (setting [8]) was 0.5 µg/mL in each case.
